Measured values from ChEMBL document CHEMBL1143092, “Identification of novel benzimidazole series of potent and selective ORL1 antagonists” (Bioorg Med Chem Lett, 2008).

Columns and labels:
Nociceptin receptor [1] = molecular target: T1, Nociceptin receptor (Homo sapiens, UniProt P41146); assay: Antagonist activity at human ORL1 receptor expressed in CHO cell membrane by [35S]GTP-gamma-S binding assay; assay type: functional, cell membranes
Nociceptin receptor [2] = molecular target: T1, Nociceptin receptor; assay: Displacement of [125I]Tyr14-NC from human ORL1 receptor expressed in CHO cell membrane; assay type: cell membranes
[3] = molecular target: Kappa-type opioid receptor (Homo sapiens, UniProt P41145); assay: Displacement of [3H]U-69593 from human cloned kappa opioid receptor expressed in CHO cell membrane; assay type: cell membranes
Mu-type opioid receptor = Mu-type opioid receptor (Homo sapiens, UniProt P35372); assay: Displacement of [3H]diprenorphin from human cloned mu opioid receptor expressed in CHO cell membrane; assay type: cell membranes
[4] = molecular target: Delta-type opioid receptor (Homo sapiens, UniProt P41143); assay: Displacement of [3H]naltrindole from human cloned delta opioid receptor expressed in CHO cell membrane; assay type: cell membranes
Liver microsomes = assay: Metabolic stability in human liver microsomes; assay type: ADME, Microsome

Chain of Mu-type opioid receptor (P35372 whole entry): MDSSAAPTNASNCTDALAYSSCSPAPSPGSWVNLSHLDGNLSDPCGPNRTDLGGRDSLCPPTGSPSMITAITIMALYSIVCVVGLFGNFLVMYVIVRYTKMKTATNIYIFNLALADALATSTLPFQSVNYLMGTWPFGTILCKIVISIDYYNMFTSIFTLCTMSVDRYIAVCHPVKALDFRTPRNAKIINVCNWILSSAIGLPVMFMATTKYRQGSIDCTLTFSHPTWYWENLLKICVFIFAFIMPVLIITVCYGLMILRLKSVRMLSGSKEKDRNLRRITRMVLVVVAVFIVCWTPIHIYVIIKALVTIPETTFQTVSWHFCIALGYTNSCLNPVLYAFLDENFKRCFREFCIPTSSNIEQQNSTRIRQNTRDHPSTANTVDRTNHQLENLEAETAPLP
Chain of Kappa-type opioid receptor (P41145 whole entry): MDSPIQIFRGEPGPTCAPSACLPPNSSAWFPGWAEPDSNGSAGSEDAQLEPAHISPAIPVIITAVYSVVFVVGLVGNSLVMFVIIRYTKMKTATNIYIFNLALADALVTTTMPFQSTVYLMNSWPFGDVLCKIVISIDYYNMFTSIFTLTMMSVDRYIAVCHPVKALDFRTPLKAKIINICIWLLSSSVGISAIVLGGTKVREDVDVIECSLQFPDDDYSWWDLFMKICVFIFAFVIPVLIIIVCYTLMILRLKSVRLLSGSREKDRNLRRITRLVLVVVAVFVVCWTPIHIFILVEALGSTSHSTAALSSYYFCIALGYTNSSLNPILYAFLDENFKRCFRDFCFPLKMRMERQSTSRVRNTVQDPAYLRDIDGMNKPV
T1 sequence (P41146 whole entry): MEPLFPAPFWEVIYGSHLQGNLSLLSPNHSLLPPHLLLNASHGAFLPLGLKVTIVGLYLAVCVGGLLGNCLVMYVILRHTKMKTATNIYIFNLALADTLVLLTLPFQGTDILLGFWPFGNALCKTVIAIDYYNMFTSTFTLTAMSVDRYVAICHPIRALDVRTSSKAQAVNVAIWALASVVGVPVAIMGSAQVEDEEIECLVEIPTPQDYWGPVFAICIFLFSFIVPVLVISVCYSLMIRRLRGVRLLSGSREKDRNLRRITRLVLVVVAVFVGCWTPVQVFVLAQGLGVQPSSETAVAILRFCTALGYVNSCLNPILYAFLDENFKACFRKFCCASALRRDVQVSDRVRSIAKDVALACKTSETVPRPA
Chain of Delta-type opioid receptor (P41143 whole entry): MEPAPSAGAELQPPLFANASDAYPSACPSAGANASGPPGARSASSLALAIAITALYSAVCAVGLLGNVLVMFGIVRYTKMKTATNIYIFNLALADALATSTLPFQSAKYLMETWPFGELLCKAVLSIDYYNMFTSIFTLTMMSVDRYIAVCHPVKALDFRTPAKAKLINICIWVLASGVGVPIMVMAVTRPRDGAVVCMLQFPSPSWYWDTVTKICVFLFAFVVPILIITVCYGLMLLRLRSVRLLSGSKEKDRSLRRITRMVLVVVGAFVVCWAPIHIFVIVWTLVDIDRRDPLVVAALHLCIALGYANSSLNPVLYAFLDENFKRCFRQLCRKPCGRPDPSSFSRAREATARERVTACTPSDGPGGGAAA

Row | IC50 [3] [nM] | IC50 (Mu-type opioid receptor) [nM] | IC50 [4] [nM] | Compound | IC50 (Nociceptin receptor [1]) [nM] | IC50 (Nociceptin receptor [2]) [nM] | Stability (Liver microsomes) [%]
1 | – | – | – | Fc1cc2nc(SCc3c(Cl)cccc3Cl)[nH]c2cc1N1CCNCC1 | 2700 | 55 | –
2 | – | – | – | CCC(CC)Sc1nc2ccc(N3CCNCC3)cc2[nH]1 | – | 320 | –
3 | – | – | – | Cc1cccc(CSc2nc3cc(F)c(N4CCNCC4)cc3[nH]2)c1 | – | 180 | –
4 | 31 | 520 | – | OCCN1CCN(c2cc3[nH]c(SC4CCCCC4)nc3cc2Cl)CC1 | 20 | 20 | –
5 | – | – | – | CCC(CC)Sc1nc2cc(C#N)c(N3CCNCC3)cc2[nH]1 | 78 | 15 | –
6 | – | – | – | Fc1ccc(CSc2nc3cc(F)c(N4CCN(CC5CCCCCCC5)CC4)cc3[nH]2)cc1 | – | > 10000 | –
7 | – | – | – | Fc1ccc(CSc2nc3cc(F)c(N4CCNCC4)cc3[nH]2)cc1 | – | 63 | –
8 | 120 | 4400 | – | CC(C)(C)Sc1nc2cc(Cl)c(N3CCN(CCO)CC3)cc2[nH]1 | 21 | 17 | –
9 | – | – | – | O=S(=O)(Cc1cccc(Cl)c1Cl)c1nc2cc(F)c(N3CCNCC3)cc2[nH]1 | – | 240 | –
10 | – | – | – | CCC(CC)Sc1nc2cc(F)c(N3CCNCC3)cc2[nH]1 | 690 | 4.7 | –
11 | – | – | – | Cc1ccc(CSc2nc3cc(F)c(N4CCNCC4)cc3[nH]2)cc1 | – | 31 | –
12 | – | – | – | CCC(CC)Sc1nc2cc(C(C)=O)c(N3CCNCC3)cc2[nH]1 | – | 3100 | –
13 | – | – | – | CSc1nc2cc(F)c(N3CCNCC3)cc2[nH]1 | – | 2900 | –
14 | – | – | – | Fc1cc2nc(SCc3cccc(Cl)c3Cl)[nH]c2cc1N1CCNCC1 | 140 | 6 | –
15 | 170 | 2800 | > 1000 | CCC(C)(CC)Sc1nc2cc(Cl)c(N3CCN(CCO)CC3)cc2[nH]1 | 0.66 | 1.2 | –
16 | 160 | 3500 | – | CCC(C)(C)Sc1nc2cc(Cl)c(N3CCN(CCO)CC3)cc2[nH]1 | 2.5 | 5.6 | –
17 | 60 | 3100 | – | CC(C)Sc1nc2cc(Cl)c(N3CCN(CCO)CC3)cc2[nH]1 | – | 120 | –
18 | – | – | – | Fc1cc2nc(SCc3ccccc3)[nH]c2cc1N1CCNCC1 | – | 140 | –
19 | – | – | – | Fc1ccc(CSc2nc3cc(F)c(N4CCN(Cc5ccccc5)CC4)cc3[nH]2)cc1 | – | 8200 | –
20 | – | – | – | Fc1cc2nc(SCC3CCCCC3)[nH]c2cc1N1CCNCC1 | 930 | 17 | –
21 | – | – | – | [O-][S+](Cc1cccc(Cl)c1Cl)c1nc2cc(F)c(N3CCNCC3)cc2[nH]1 (centres undefined) | – | 2900 | –
22 | 88 | 1400 | – | CC1(Sc2nc3cc(Cl)c(N4CCN(CCO)CC4)cc3[nH]2)CCCCC1 | 1.8 | 1.8 | –
23 | 60 | 3100 | > 1000 | CCC(CC)Sc1nc2cc(Cl)c(N3CCN(CCO)CC3)cc2[nH]1 | 3.3 | 9.7 | 51
24 | – | – | – | CCC(CC)Sc1nc2cc(Cl)c(N3CCN(CC)CC3)cc2[nH]1 | 3.9 | 10 | 31
25 | – | – | – | Fc1cc2nc(SCc3ccccc3Cl)[nH]c2cc1N1CCNCC1 | 380 | 23 | –
26 | – | – | – | Cc1ccccc1CSc1nc2cc(F)c(N3CCNCC3)cc2[nH]1 | 1700 | 78 | –
27 | – | – | – | CN1CCN(c2cc3[nH]c(SCc4ccc(F)cc4)nc3cc2F)CC1 | – | 910 | –
